# Experiments:
# T. cruzi trypomastigotes = assay: Effect on cell derived trypomastigotes (percent motile parasites); assay type: cell-based; conditions: Trypanosoma cruzi, 24 h incubation, percent of motile parasites
# Procedure: (§1) Trypomastigotes were obtained by infecting CHO-K1 cells. CHO-K1 cells were cultivated in RPMI-1640 medium supplemented with 10% heat-inactivated fetal calf serum (FCS), 0.15% (w/v) […], 100 µg mL^−1 penicillin and 130 µg mL^−1 streptomycin and incubated at 37 °C in a humidified atmosphere containing 5% CO2. CHO-K1 cells were initially incubated with metacyclic trypomastigotes obtained by in vitro differentiation of epimastigotes as previously described (multiplicity of infection: 50 parasites per cell) for 4 h. After washing out the non-internalized parasites, the cells were incubated overnight in RPMI medium supplemented with 10% FCS at 37 °C and then maintained at 33 °C in a humidified atmosphere containing 5% CO2 as previously reported. Infected cells were maintained at 33 °C in the presence of 10% FCS. Infected cell-derived trypomastigotes started to burst into the culture medium at the 5th day post-infection. Trypomastigotes collected at day 5 or 6 post infection were used for the viability assays.
# To measure the effect of compounds, cell derived trypomastigotes were collected from the extracellular medium at the fifth or sixth day after infection and counted in a Neubauer chamber. […] After incubation the trypanocidal effect was assessed by counting the percent of motile parasites in a Neubauer chamber. […]
# [1] = test system: T. cruzi epimastigotes (CL Brener strain); assay: In vitro inhibition of proliferation of T. cruzi epimastigotes; assay type: cell-based, Trypanosoma cruzi; conditions: Trypanosoma cruzi; cell densities at the 5th day of proliferation, four independent experiments
# Procedure: as §1
# The density of exponentially proliferating epimastigotes for each assay was adjusted to 2.0 × 10^6 parasites mL^−1, transferred into 96-well plates (200 μL/well) and incubated with different concentrations of the compounds 5-F-2′-deoxyuridine, 5-F-uracil, 5-F-uridine or benznidazole. A combination of 60 μM rotenone and 0.5 μM antimycin (RA) was used as a positive control for proliferation inhibition (positive control), as previously described. […] The epimastigote proliferation was measured as previously reported, by reading the optical density (OD) at 620 nm every 24 h for 9 days (which collects readings through the exponential and stationary phases). […] The half-maximal inhibitory concentrations (IC50) were determined during the exponential growth phase (fifth day) by adjusting a sigmoidal dose-response function to experimentally obtained data using GraphPad Prism 8. The compounds were assessed in quadruplicate in each experiment, and the results correspond to four independent experiments.
# L. mexicana = test system: L. mexicana; parameters: method as in PMID 28453984; conditions: ref [36]; read-out: EC50 against L. mexicana; cited from earlier work
smiles,measurement,setting,value
"O=c1[nH]c(=O)n([C@H]2C[C@H](O)[C@@H](CO)O2)cc1F [5-F-2′-dUrd, 5-F-2′-deoxyuridine]",inhibition at 31 µM,T. cruzi trypomastigotes,~30%
same,IC50,[1],16.8 ± 0.01 µM
same,EC50,L. mexicana,1.7 µM
